Assay results from patent publication US20140332384A1, “BIOMARKERS RELATED WITH A SUPRA-N[…] STATE OF SELENIUM AND DIAGNOSIS METHOD IN WHICH SAID […] IDENTIFIED” (UNIVERSIDAD DE SANTIAGO DE CHILE, priority 2011, published 2014).
Where “and” joins values, the source holds several entries; their conditions need not be identical. Equal values may be shown once.

What was measured:
[1] = Growth of rats based on their body weight; conditions: 10 weeks; for Final body weight: in g (unit assumed)
Procedure: As illustrated in the various embodiments and examples provided herein, the protein pattern was obtained using blood plasma from Wistar rats, bred in three groups of 8 rats, 21 days of age (4 females and 4 males) each. […] The animals had free access to deionized water and received the respective diet ad libitum. […]
The animals were kept in stainless steel cages at a controlled temperature equal to 20° C., using 12 hours day/night cycles. After the experimental period (10 weeks), blood samples were collected from each animal by cardiac punction, using standard protocols in heparin tubes. The tubes were inverted 10 times, and immediately placed in an ice bath. The tubes were centrifuged at 1300 RCF at 4° C. during 10 minutes. The plasma was separated from the solids. The supernatant was transferred to a fresh centrifuge tube and was centrifuged at 2400 RCF at 4° C. for 15 minutes. Finally, plasma samples were stored at −80° C. until they were analysed.
The growth of rats for each group was controlled.

[2] = test system: blood plasma proteins of basic isoelectric point (bands R-2 to R-15); assay: Protein pattern of blood plasma proteins of basic isoelectric point (SDS-PAGE, densitometry) in rats fed supplemented diets; assay type: in vivo, Wistar rats
Procedure: The plasma was separated from the solids.
For the preparation of the pattern used, individual plasma samples were analyzed by SDS electrophoresis in polyacrylamide gel according to standard protocols. Prior to electrophoretic analysis, plasma samples were fractioned by “batch” adsorption using an ion exchange resin at pH 7.5. The adsorbed fraction was recovered and analyzed by SDS polyacrylamide gel.
A calibration curve was prepared loading five solutions of different concentrations (0, 0.4, 0.6, 0.8, and 1 mg/ml) [XAOG1]·[A2] of bovine serum albumin (as protein standard) in a polyacrylamide gel, and performing SDS-PAGE analysis under the same conditions and with the same protocol as used to analyse the plasma samples. In each lane a single major band was detected, and between the each lane different band intensity was observed due to the different concentration of the protein loaded (FIGS. 2-5). The optical density of each band was determined, as the protein concentration was known in each solution loaded in the different lanes, a linear equation was drawn which correlates the concentration with the intensity of the bands.
The concentration of protein was quantified in each band via optical densitometry and subsequent interpolation in the calibration curve. The concentration average and standard deviation for each band was calculated, considering the 8 samples of each group (controls and experimental). A comparison was made using the Student statistical t-test with a confidence interval 95% to detect significant differences in each band between the experimental and control groups.
The reference pattern for protein corresponds to the set of plasma proteins of basic isoelectric point obtained and separated by the following methodology.
Stage A: Chromatographic Fractionation of Plasma Proteins Basic Isoelectric Point.
1. Resuspend the cationic exchange resin, carefully turning the package containing the resin. When total homogenization is achieved, a certain volume of suspension is taken, between 50 and 500 μL, preferably between 50 and 200 μL, more preferably 100 μL.
2. Mix in a microcentrifuge tube around 50 to 500 μL, preferably between 50 and 200 μL, more preferably 100 μL of plasma with a 1:9 proportional amount of buffer pH 7.5, until a ionic strength equal to 0.1M, is attained, this is if you take 100 μL of plasma, 900 μL buffer must be added to achieve a 1:10 dilution, and obtain a plasma protein solution with an ionic strength equivalent to 0.09 to 0.1M of NaCl.
3. To prepare the cationic exchange resin, it is necessary to decant the resin from the original suspension volume, discarding the supernatant and washing the resin by adding an amount equivalent to the discarded supernatant buffer pH 7.5 plus 0.1M NaCl, repeating the procedure 3 times.
The protein sample obtained from stage 2 is added and mixed gently homogenizing it for 30 minutes and the resin is separated from the supernatant, the supernatant is discarded and the resin is washed with the same volume of pH 7.5 buffer plus 0.1M NaCl, three times. The adsorbed proteins are eluted by adding a suitable volume, preferably between 40 and 80 μL, more preferably 50 µL of pH 7.5 buffer over 1M NaCl, homogenized, the resin is separated from the supernatant, and finally supernatant is recuperated, which corresponds to the fraction of plasma proteins with a basic isoelectric point.
Stage B: Electrophoretic separation of plasma proteins of a basic isoelectric point.
A 12% polyacrylamide gel is prepared, according to standard protocols. A 20 μl of the sample obtained in item 3 and 5 μL of loading buffer (standard composition for SDS analysis) is subject to denaturation by heat. The denatured mixture is loaded into a lane and the electrophoretic run is performed, for a total of 160 Vh. The electrophoresis system is disassembled and the gel is recovered. […]

[3] = test system: blood plasma proteins of basic isoelectric point (bands R-2 to R-15); assay: Protein pattern of blood plasma of an individual treated with dietary supplement seleno methylselenocysteine (Example 2); assay type: in vivo
Excerpt: The samples must pass through the stages A and B as described in the preparation of the pattern.
Step C: Comparing the protein pattern of the reference.
It compares the SDS-PAGE gel of the sample collected and treated with the protein pattern characteristic of a supranutritional intake of a trace element, in this case, the organic form of selenium as provided in seleno-methyl-selenocysteine, and evaluating the presence of the same bands and its relative abundance in each of the bands.
A statistical analysis (t-Student with an interval of 95%) is performed to detect significant differences between the relative abundance of the corresponding protein bands between the sample and pattern.
A sample of plasma from an individual who has undergone treatment with a nutritional dietary supplement seleno methylselenocysteine. This plasma sample was subject to the methodology described above, and the following were the results.
For comparison, Student's t-test with a confidence interval of 95% confidence was used. […] The interpretation of the results, based on the methodology would be as follows.

[4] = cited from earlier work
[5] = Sodium Selenate (1.5 μg) diet, females, average
[6] = Sodium Selenate (1.5 μg) diet, females, individual rats
[7] = Sodium Selenate (1.5 μg) diet, group average
[8] = Sodium Selenate (1.5 μg) diet, males, average
[9] = Sodium Selenate (1.5 μg) diet, males, individual rats
[10] = Sodium Selenate (1.9 μg) diet, females, average
[11] = Sodium Selenate (1.9 μg) diet, females, individual rats
[12] = Sodium Selenate (1.9 μg) diet, group average
[13] = Sodium Selenate (1.9 μg) diet, males, average
[14] = Sodium Selenate (1.9 μg) diet, males, individual rats
[15] = SMSeC (1.9 μg) diet, females, average
[16] = SMSeC (1.9 μg) diet, females, individual rats
[17] = SMSeC (1.9 μg) diet, group average
[18] = SMSeC (1.9 μg) diet, males, average
[19] = SMSeC (1.9 μg) diet, males, individual rats
[20] = rat blood plasma, basic isoelectric point fraction, diet with 1.9 μg SMSeC per gram, 10 weeks, average ± standard deviation, [UA] in Tables 4, 5
[21] = rats fed 1.9 μg seleno-methyl-selenocysteine per g of diet, Student t-test, confidence interval 95%

O=[Se](=O)(O)O [Sodium Selenate, sodium selenate]
Delta body weight [1, 5]: 151.1
Final body weight [1, 5]: 199.5
Delta body weight [1, 6]: 141.6 and 135.5 and 139.3 and 187.8
Final body weight [1, 6]: 189.8 and 184.2 and 188.3 and 235.7
Delta body weight [1, 7]: 207.8
Final body weight [1, 7]: 256.7
Delta body weight [1, 8]: 264.6
Final body weight [1, 8]: 313.8
Delta body weight [1, 9]: 266.6 and 275.8 and 271.2 and 244.9
Final body weight [1, 9]: 316.8 and 326.3 and 318.5 and 293.5
Delta body weight [1, 10]: 161.2
Final body weight [1, 10]: 209.7
Delta body weight [1, 11]: 180.4 and 161.3 and 145.1 and 158.1
Final body weight [1, 11]: 228.6 and 210 and 194.1 and 206
Delta body weight [1, 12]: 218.0
Final body weight [1, 12]: 266.9
Delta body weight [1, 13]: 274.8
Final body weight [1, 13]: 324
Delta body weight [1, 14]: 293.1 and 278.3 and 291.9 and 235.9
Final body weight [1, 14]: 343.3 and 328.8 and 339.2 and 284.5

C[Se]C[C@H](N)C(=O)O [SMSeC, seleno-methyl-selenocysteine]
Delta body weight [1, 15]: 168.3
Final body weight [1, 15]: 216.7
Delta body weight [1, 16]: 161.1 and 160.2 and 172.4 and 179.3
Final body weight [1, 16]: 208.6 and 210.3 and 222.2 and 225.5
Delta body weight [1, 17]: 211.5
Final body weight [1, 17]: 260.4
Delta body weight [1, 18]: 254.7
Final body weight [1, 18]: 304
Delta body weight [1, 19]: 245.1 and 256.8 and 275.8 and 241.0
Final body weight [1, 19]: 296.5 and 308.7 and 322.6 and 287.9
Relative abundance of band R-2 (H inhibitory factor complement) of the pattern [2, 20]: 28498 ± 3911.5 arbitrary units
Relative abundance of band R-3 (H inhibitory factor complement) of the pattern [2, 20]: 20594.0 ± 4569.2 arbitrary units
Relative abundance of band R-4 (CRA f isophorm plasminogen) of the pattern [2, 20]: 21804.3 ± 4211.0 arbitrary units
Relative abundance of band R-5 (LOC366747 Protein) of the pattern [2, 20]: 24582.7 ± 3620.9 arbitrary units
Relative abundance of band R-6 (4a component complement) of the pattern [2, 20]: 29751.3 ± 2974.0 arbitrary units
Relative abundance of band R-7 (Albumina) of the pattern [2, 20]: 37380.8 ± 2955.7 arbitrary units
Relative abundance of band R-8 (Da 1-24) of the pattern [2, 20]: 27224.3 ± 6466.9 arbitrary units
Relative abundance of band R-9 (2C chainCregion Ig Gamma) of the pattern [2, 20]: 40411.3 ± 5952.4 arbitrary units
Relative abundance of band R-10 (Precursor β-2-glicoprotein 1) of the pattern [2, 20]: 14366.6 ± 3087.2 arbitrary units
Relative abundance of band R-11 (2A Region C Ig Gamma chain) of the pattern [2, 20]: 14644.4 ± 1750.0 arbitrary units and 14064.4 ± 1750.0 arbitrary units
Relative abundance of band R-12 (4a component complement) of the pattern [2, 20]: 51973.0 ± 4308.2 arbitrary units
Relative abundance of band R-13 (Heavy chain H4 inter α inhibitor) of the pattern [2, 20]: 13414.1 ± 5568.9 arbitrary units
Relative abundance of band R-14 (Ig Kappa precursor) of the pattern [2, 20]: 40436.1 ± 2906.9 arbitrary units
Relative abundance of band R-15 (H apolipoprotein) of the pattern [2, 20]: 11309.5 ± 6939.5 arbitrary units
Concentration of protein in band R-10 compared with basal diet plus 0.15 μg sodium selenate per gram of diet [2, 21]: significantly higher
Concentration of protein in band R-11 compared with basal diet plus 0.15 μg sodium selenate per gram of diet [2, 21]: significantly higher
Concentration of protein in band R-12 compared with basal diet plus 0.15 μg sodium selenate per gram of diet [2, 21]: significantly higher
Concentration of protein in band R-13 compared with basal diet plus 0.15 μg sodium selenate per gram of diet [2, 21]: significantly higher
Concentration of protein in band R-15 compared with basal diet plus 0.15 μg sodium selenate per gram of diet [2, 21]: significantly higher
Concentration of protein in band R-3 compared with both control groups ([2]; rats fed 1.9 μg seleno-methyl-selenocysteine per gram of diet, Student t-test, confidence interval 95%): significantly higher
Relative abundance [UA] of the individual, band R-2 [3]: 29498.0 ± 3911.5 UA
Relative abundance [UA] of the individual, band R-3 [3]: 22594.0 ± 4569.2 UA
Relative abundance [UA] of the individual, band R-4 [3]: 21994.3 ± 4211.0 UA
Relative abundance [UA] of the individual, band R-5 [3]: 25682.7 ± 3620.9 UA
Relative abundance [UA] of the individual, band R-6 [3]: 30751.3 ± 2974.0 UA
Relative abundance [UA] of the individual, band R-7 [3]: 37560.8 ± 2955.7 UA
Relative abundance [UA] of the individual, band R-8 [3]: 28124.3 ± 6466.9 UA
Relative abundance [UA] of the individual, band R-9 [3]: 41211.3 ± 5952.4 UA
Relative abundance [UA] of the individual, band R-10 [3]: 14666.6 ± 3087.2 UA
Relative abundance [UA] of the individual, band R-11 [3]: 13964.4 ± 1750.0 UA
Relative abundance [UA] of the individual, band R-12 [3]: 52073.0 ± 4308.2 UA
Relative abundance [UA] of the individual, band R-13 [3]: 15414.1 ± 5568.9 UA
Relative abundance [UA] of the individual, band R-14 [3]: 41436.1 ± 2906.9 UA
Relative abundance [UA] of the individual, band R-15 [3]: 12009.5 ± 6939.5 UA

[Se] [selenium]
Maximum Tolerable Intake ([4]; adult women and adult men): 400 µg/day
Selenium content of a food diet that could produce toxic effects ([4]; estimated, per kg of food diet): more than 1 mg per kg
